Laboratory results published in publication PMC9780888, “4-Isobutylmethcathinone—A Novel Synthetic Cathinone with High In Vitro Cytotoxicity and Strong Receptor Binding Preference of Enantiomers” (Pharmaceuticals, 2022).
Where a name gives a salt, the structure may show the parent alone. Read-outs that look alike come from different tables or passages of the source.

Legend:
L929 = assay: WST-1 viability assay, L929 cells; type: cell-based, mouse; conditions: L929, 72 h incubation, WST-1, four replicates
Method: (§1) Based on the novelty of the IMBcat compound, we aimed to evaluate its in vitro cytotoxicity in selected model cell lines as well as to determine the toxicity of the IBMcat enantiomers, since both the chemical structure and chirality of compounds could play a role in their bioactivity (Table 2). The cytotoxic profile of the IBMcat was determined by a WST-1 viability assay after 72-h treatment. For this purpose, cell lines derived from distinct tissues, often affected by NPSs, were chosen, i.e., cells of kidney, hepatic, neural, urinary, and intestinal origin as well as keratinocytes and primary fibroblasts (HEK 293T, Hep G2, HMC-3, SH-SY5Y, 5637, CaCo-2, HaCaT, MRC-5, and BJ, respectively). The cytotoxicity of IBMcat and its enantiomers was concentration- and cell-line dependent, the IC50 values, which were in the micromolar range, are given in Table 2. […] This was followed by embryonic kidney cells HEK 293T (immortalized), in which the toxicity ranged between a concentration of 123 and 192 µM.
(§2) In this study, the following cell lines were used: HEK 293T, Hep G2, HMC-3, SH-SY5Y, 5637, CaCo-2, HaCaT, MRC-5, BJ, and L929. […] The selected cell lines were chosen so that not only primary noncancerous cells are evaluated but also cells derived from tissues, which are the most often affected by novel synthetic drugs, i.e., kidney, liver, urinary bladder, and nervous tissue. […]
(§3) The cytotoxicity of IBMCat was evaluated in vitro by using a WST-1 viability assay (Sigma-Aldrich, Saint Louis, MO, USA) based on the transformation of a tetrazolium salt into colored formazan in metabolically active cells. […] After 72 h of additional incubation of the cells, their viability was determined by WST-1. […] The cells were incubated for 2 h, after which absorbance of the raised formazan was measured spectrophotometrically at 450 nm (reference wavelength of 630 nm) using a UV-Vis spectrometer (Bio-Rad Laboratories, Hercules, CA, USA). […] The half-maximal inhibitory concentrations (IC50) were calculated from the measured dose–response curves by AAT Bioquest.

HaCaT = assay: WST-1 viability assay, HaCaT cells; type: cell-based, human; conditions: 72 h incubation, WST-1, four replicates
Method: as §1, §2, §3

HEK 293T = assay: WST-1 viability assay, HEK 293T cells; type: cell-based, human
Method: as §1
In this study, the following cell lines were used: HEK 293T, Hep G2, HMC-3, SH-SY5Y, 5637, CaCo-2, HaCaT, MRC-5, BJ, and L929. The cells lines were of the following origin: human embryonic immortalized kidney cells (HEK 293T), cells from hepatocellular carcinoma (Hep G2), microglial immortalized cells (HMC-3), cells from neuroblastoma (SH-SY5Y), the urinary bladder carcinoma (5637), colon carcinoma (CaCo-2), immortalized keratinocytes (HaCaT), noncancerous lung fibroblasts (MRC-5), fibroblasts from the foreskin (BJ) and mouse immortalized fibroblasts (L929; frequently used for cytotoxicity evaluation). The selected cell lines were chosen so that not only primary noncancerous cells are evaluated but also cells derived from tissues, which are the most often affected by novel synthetic drugs, i.e., kidney, liver, urinary bladder, and nervous tissue. Except for L929 and MRC-5 which were supplied by Sigma-Aldrich, the rest of the cell lines were purchased from the American Tissue Culture Collection (ATCC). […]
as §3

HMC-3 = assay: WST-1 viability assay, HMC-3 cells; type: cell-based, human; conditions: HMC-3, 72 h incubation, WST-1, four replicates
Method: as §1, §2, §3

[1] = Homo sapiens, 72 h incubation, WST-1, four replicates, read-out: IC50 ± SD

Structure (SMILES) | IC50 (L929; Mus musculus) | IC50 (HaCaT; Homo sapiens) | IC50 (HEK 293T; Homo sapiens, 72 h, racemate and enantiomers, read-out: toxicity (IC50) range) | IC50 (HEK 293T; [1]) | IC50 (HMC-3; Homo sapiens, HMC3) | IC50 (L929) | IC50 (HaCaT) | IC50 (HEK 293T; 72 h incubation, WST-1, four replicates, read-out: IC50 ± SD) | IC50 (HMC-3)
CNC(C)C(=O)c1ccc(CC(C)C)cc1.Cl (stereo not shown) [IBMcat, 4-isobutylmethcathinone hydrochloride] | 36 ± 4 µM | 357 ± 40 µM | 123 to 192 µM | 123 ± 6 µM | 61 ± 2 µM | – | – | – | –
CN[C@H](C)C(=O)c1ccc(CC(C)C)cc1 [R-IBMCat] | – | – | – | – | – | 39 ± 2 µM | 329 ± 43 µM | 185 ± 5 µM | 65 ± 2 µM
CN[C@@H](C)C(=O)c1ccc(CC(C)C)cc1 [S-IBMCat, (S)-4-isobutylmethcathinone hydrochloride] | 33 ± 5 µM | 361 ± 22 µM | – | 192 ± 2 µM | 64 ± 1 µM | – | – | – | –
